Results from patent publication US6750228B1, “Aromatic sulfone hydroxamic acid metalloprotease inhibitor” (priority 1997, dated 2004).
pIC50: −log10 of the molar value. Like-named read-outs stand apart in the source and are kept apart here.

What was measured:
MMP-13 = target: T1, MMP-13 (Homo sapiens, UniProt P45452); assay: biochemical; details: read-out: MMP-13 IC50
T1 construct: made in house; host or cells: baculovirus / insect cells
Method: (§1) The compounds prepared in the manner described in the Examples above were assayed for activity by an in vitro assay. […] Briefly, 4-aminophenylmercuric acetate (APMA) or trypsin-activated MMPs were incubated with various concentrations of the inhibitor compound at room temperature for 5 minutes.
(§2) The expressed enzyme was purified first over a heparin agarose column and then over a chelating zinc chloride column. The proenzyme was activated by APMA for use in the assay.
(§3) MMP-1 expressed in transfected HT-1080 cells was provided by Dr. Harold Welgus of Washington University, St. Louis, Mo. The enzyme was also activated using APMA and was then purified over a hydroxamic acid column. Dr. Welgus also provided transfected HT-1080 cells that expressed MMP-9. Transfected cells that expressed MMP-2 were provided by Dr. Gregory Goldberg, also of Washington University. Studies with MMP-7 were carried out at pH 7.5 in the presence of 0.02% 2-mercaptoethanol using conditions otherwise similar to those used for the other enzymes. The enzyme was obtaind from a hMMP-7-expressing E. coli clone that was a gift of Dr. Steven Shapiro of Washington University, St. Louis, Mo. Further specifics for preparation and use of these enzymes can be found in the scientific literature describing these enzymes. See, for example, Enzyme Nomenclature, Academic Press, San Diego, Calif. […] The enzyme substrate is a methoxycoumarin-containing polypeptide having the following sequence:
(§4) MCA-ProLeuGlyLeuDpaAlaArgNH2, wherein MCA is methoxycoumarin and Dpa is 3-(2,4-dinitrophenyl)-L-2,3-diaminopropionyl alanine.
(§5) The buffer used for assays contained 100 mM Tris-HCl, 100 mM NaCl, 10 mM CaCl2 and 0.05 percent polyethyleneglycol (23) lauryl ether at a pH value of 7.5. Assays were carried out at room temperature, and dimethyl sulfoxide (DMSO) at a final concentration of 1 percent was used to dissolve inhibitor compound.
(§6) The assayed inhibitor compound in DMSO/buffer solution was compared to an equal amount of DMSO/buffer with no inhibitor as control using Microfluor White Plates (Dynatech). The inhibitor or control solution was maintained in the plate for 10 minutes and the substrate was added to provide a final concentration of 4 μM.
(§7) Inhibition was measured as a reduction in fluorescent intensity as a function of inhibitor concentration, using a Perkin Elmer L550 plate reader. The IC50 values were calculated from those values. The results are set forth in the Inhibition Table A, below, reported in terms of IC50 to three significant figures, where appropriate.

MMP-2 = target: T2, MMP-2 (Homo sapiens, UniProt P08253); assay: biochemical; details: for pIC50: read-out: MMP-2 IC50; for IC50: MMP-2 IC50 (nM)
T2 construct: made in house; provided by Dr. Gregory Goldberg, Washington University
T2 sequence (P08253 110-660): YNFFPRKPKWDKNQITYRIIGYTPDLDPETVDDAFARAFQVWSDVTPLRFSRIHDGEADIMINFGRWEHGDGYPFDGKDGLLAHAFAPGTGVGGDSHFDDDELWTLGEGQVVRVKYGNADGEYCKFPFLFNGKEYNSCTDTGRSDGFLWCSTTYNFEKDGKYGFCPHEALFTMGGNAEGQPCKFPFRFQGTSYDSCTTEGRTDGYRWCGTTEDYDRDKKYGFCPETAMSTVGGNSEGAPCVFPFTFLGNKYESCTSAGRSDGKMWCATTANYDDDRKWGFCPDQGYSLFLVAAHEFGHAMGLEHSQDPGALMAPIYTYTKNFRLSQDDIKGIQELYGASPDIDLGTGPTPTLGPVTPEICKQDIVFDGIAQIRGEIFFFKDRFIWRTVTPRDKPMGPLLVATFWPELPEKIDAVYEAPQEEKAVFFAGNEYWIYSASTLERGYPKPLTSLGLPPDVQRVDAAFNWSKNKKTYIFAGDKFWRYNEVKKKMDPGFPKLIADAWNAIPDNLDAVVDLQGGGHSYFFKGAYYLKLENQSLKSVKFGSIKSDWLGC
Method: as §1, §2, §3, §4, §5, §6, §7

[1] = recombinant human MMP-13, MCA peptide substrate 4 μM, pH 7.5, room temperature
[2] = recombinant human MMP-2, MCA peptide substrate 4 μM, pH 7.5, room temperature

SMILES	pIC50 (MMP-13; [1])	pIC50 (MMP-2; [2])	pIC50 (MMP-13)	pIC50 (MMP-2)	IC50 (MMP-2)
COCCN1CCC(C(N)=O)(S(=O)(=O)c2ccc(Oc3ccc(OC(F)(F)F)cc3)cc2)CC1 [Example 1]	7.64	8.07	–	–	–
C#CCN1CCC(C(N)=O)(S(=O)(=O)c2ccc(Sc3ccccc3)cc2)CC1 [Example 2]	5.26	5.22	–	–	–
O=C(C1CCN(c2ccc(S(=O)(=O)C3(C(=O)NO)CCOCC3)cc2)CC1)N1CCN(c2ccc(C(F)(F)F)cc2)CC1 [Example 38]	–	–	7.17	5.22	–
C=CCN(CC=C)C(=O)C1CCN(c2ccc(S(=O)(=O)C3(C(=O)NO)CCOCC3)cc2)CC1 [Example 48]	7.57	5.49	–	–	–
CC1CC(C)CN(C(=O)C2CCN(c3ccc(S(=O)(=O)C4(C(=O)NO)CCOCC4)cc3)CC2)C1 (stereo not drawn) [Example 55]	8.00	< 5.00	–	–	–
COc1ccccc1N1CCN(c2ccc(S(=O)(=O)C3(C(=O)NO)CCOCC3)cc2)CC1 [Example 85]	6.89	6.43	–	–	–
O=C(NO)C1(S(=O)(=O)c2ccc(N3CCC(OCc4cccc(C(F)(F)F)c4)CC3)cc2)CCOCC1 [Example 177]	8.06	6.28	–	–	–
CNC(=S)N1CCC(C(=O)NO)(S(=O)(=O)c2ccc(Oc3ccc(OC(F)(F)F)cc3)cc2)CC1 [Example 198, N-hydroxy-4[[4-(4-trifluoromethoxyphenoxy)-]sulfonyl]-1-(N-methylthiourea)-4-piperidinecarboxamide]	9.43	9.60	–	–	–
O=C(NO)C1(S(=O)(=O)c2ccc(Oc3ccc(C(F)(F)F)cc3)cc2)CCN(C2CC2)CC1 [Example 269]	–	–	–	–	< 0.1 nM
O=C(NO)C1(S(=O)(=O)c2ccc(Oc3ccc(C(F)(F)F)cc3)cc2)CCN(C2CC2)CC1 [Example 270]	–	–	–	–	1 nM
O=C(NO)C1(S(=O)(=O)c2ccc(Oc3ccc(C(F)(F)F)cc3)cc2)CCN(C2CC2)CC1 [Example 271]	–	–	–	–	0.17 nM
O=C(NO)C1(S(=O)(=O)c2ccc(N3CCN(c4ccc(Cl)cc4)CC3)cc2)CCN(C2CC2)CC1 [Example 354]	8.80	7.81	–	–	–
O=C(NO)C1(S(=O)(=O)c2ccc(N3CCN(c4ccc(C(F)(F)F)cc4)CC3)cc2)CCN(C2CC2)CC1 [Example 356]	8.62	7.49	–	–	–
C=C(C)c1ccc(N2CCN(c3ccc(S(=O)(=O)C4(C(=O)NO)CCN(C5CC5)CC4)cc3)CC2)cc1 [Example 360]	8.00	8.25	–	–	–
COc1ccc(N2CCN(c3ccc(S(=O)(=O)C4(C(=O)NO)CCN(C5CC5)CC4)cc3)CC2)cc1 [Example 368]	–	8.15	–	–	–
O=C(NO)C1(S(=O)(=O)c2ccc(N3CCN(c4ccccc4)CC3)cc2)CCN(C2CC2)CC1 [Example 369]	8.48	8.27	–	–	–
CCc1ccc(C(=O)C2CCN(c3ccc(S(=O)(=O)C4(C(=O)NO)CCN(C5CC5)CC4)cc3)CC2)cc1 [Example 371]	7.95	6.40	–	–	–
Cc1ccc(C(=O)C2CCN(c3ccc(S(=O)(=O)C4(C(=O)NO)CCN(C5CC5)CC4)cc3)CC2)cc1 [Example 373]	8.52	7.10	–	–	–
CCOc1ccc(C(=O)C2CCN(c3ccc(S(=O)(=O)C4(C(=O)NO)CCN(C5CC5)CC4)cc3)CC2)cc1 [Example 376]	8.26	6.64	–	–	–

SMILES	pIC50 (MMP-13; [1])	pIC50 (MMP-2; [2])	pIC50 (MMP-13)	pIC50 (MMP-2)	IC50 (MMP-2)
O=C(NO)C1(S(=O)(=O)c2ccc(N3CCC(Sc4nc5ccccc5o4)CC3)cc2)CCN(C2CC2)CC1 [Example 382]	7.94	6.59	–	–	–
O=C(NO)C1(S(=O)(=O)c2ccc(N3CCC(c4nc(-c5cccc(C(F)(F)F)c5)no4)CC3)cc2)CCN(C2CC2)CC1 [Example 388]	7.30	6.37	–	–	–
O=C(NO)C1(S(=O)(=O)c2ccc(N3CCC(SCc4ccc(C(F)(F)F)cc4)CC3)cc2)CCN(C2CC2)CC1 [Example 394]	9.30	8.10	–	–	–
C[C@H](OC1CCN(c2ccc(S(=O)(=O)C3(C(=O)NO)CCN(C4CC4)CC3)cc2)CC1)c1ccccc1 [Example 400]	7.63	6.28	–	–	–
O=CN1CCC(C(=O)NO)(S(=O)(=O)c2ccc(Oc3ccc(OC(F)(F)F)cc3)cc2)CC1 [Example 452]	> 10.00	> 10.00	–	–	–
O=C(NO)C1(S(=O)(=O)c2ccc(N3CCN(CCO)CC3)cc2)CCOCC1 [Example 623]	6.46	5.85	–	–	–
Cc1ccc(C(O)C2CCN(c3ccc(S(=O)(=O)C4(C(=O)NO)CCOCC4)cc3)CC2)cc1C (stereo not drawn) [Example 826]	7.40	6.19	–	–	–
O=C(NO)C1(S(=O)(=O)c2ccc(C3=CCC(c4ccccc4)CC3)cc2)CCOCC1 (stereo not drawn) [Example 828]	8.82	7.89	–	–	–
COc1cccc(S(=O)(=O)N2CC(Oc3ccc(S(=O)(=O)C4(C(=O)NO)CCOCC4)cc3)C2)c1 [Example 829]	8.22	7.66	–	–	–
Cc1ccc(S(=O)(=O)N(C)C2CCN(c3ccc(S(=O)(=O)C4(C(=O)NO)CCOCC4)cc3)CC2)cc1 [Example 834]	6.82	6.11	–	–	–
CN(C)c1ccc(S(=O)(=O)C2CCN(c3ccc(S(=O)(=O)C4(C(=O)NO)CCOCC4)cc3)CC2)cc1 [Example 836]	6.87	5.38	–	–	–
CC(C)(C)c1ccc(CC2CCN(c3ccc(S(=O)(=O)C4(C(=O)NO)CCOCC4)cc3)CC2)cc1 [Example 841]	6.55	5.72	–	–	–
CS(=O)(=O)c1ccccc1S(=O)(=O)N1CC(Oc2ccc(S(=O)(=O)C3(C(=O)NO)CCOCC3)cc2)C1 [Example 845]	7.54	5.70	–	–	–
CCCCS(=O)(=O)N1CC(Oc2ccc(S(=O)(=O)C3(C(=O)NO)CCOCC3)cc2)C1 [Example 851]	8.43	7.37	–	–	–
CN(C)c1cccc2c(S(=O)(=O)N3CC(Oc4ccc(S(=O)(=O)C5(C(=O)NO)CCOCC5)cc4)C3)cccc12 [Example 852]	7.60	5.52	–	–	–
CN(C)S(=O)(=O)N1CC(Oc2ccc(S(=O)(=O)C3(C(=O)NO)CCOCC3)cc2)C1 [Example 853]	7.80	6.92	–	–	–
CC(=O)c1ccccc1S(=O)(=O)N1CC(Oc2ccc(S(=O)(=O)C3(C(=O)NO)CCOCC3)cc2)C1 [Example 854]	7.40	5.48	–	–	–
CSc1ccc(C(=O)C2CCN(c3ccc(S(=O)(=O)C4(C(=O)NO)CCOCC4)cc3)CC2)cc1 [Example 856]	8.92	6.60	–	–	–
O=C(c1ccc(Cl)cc1)C1CCN(c2ccc(S(=O)(=O)C3(C(=O)NO)CCOCC3)cc2)CC1 [Example 857]	8.89	6.92	–	–	–
